Data as given in patent publication US20220347186A1, “METHODS AND COMPOSITIONS FOR TREATING SICKLE CELL DISEASE AND THALASSEMIA” (THE UNIVERSITY OF CHICAGO, priority 2019, published 2022).
“Also recorded” adds a separate entry of the source. One block for each compound: values may come before it.

What was measured:
BET proteins = conditions: cited from earlier work; for Bromodomain preference (BD1 vs BD2): BET proteins; for Affinity among BET family members: BRD2/BRD3/BRD4/BRDT, literature refs 17, 18
[1] = Lifespan in culture medium; format: physicochemical
K562 cells [2] = experiment: RT-qPCR quantification of gene expression in K562 cells; format: cell-based, human; conditions: for HBB, HBG1/2 and HBE1 expression compared with JQ1: CPI-0610 reapplied daily, PLX51107 once at day 0
Method: (§1) K562, HEL, and HL-60 cells were cultured in RPMI 1640 medium supplemented with 10% FBS. TF-1 cells were cultured in RPMI 1640 medium supplemented with 10% FBS and 4 ng/mL GM-CSF. Before treatment, TF-1 cells were washed 4× with RPMI 1640 without supplements, and cultured in RPMI 1640 medium with 10% FBS but no GM-CSF for 24 hours. 4 ng/mL GM-CSF or 3 units/mL EPO were added at the time of treatment set up. K562, HEL, and HL-60 cells were cultured as normal until treatment set up. JQ1 (Sigma-Aldrich, SML1524), CPI-0610 (Selleck Chemicals, S7853), and PLX51107 (MedChemExpress, HY-111422) were dissolved in DMSO to 10 mM concentration and stored in −80° C. All three inhibitors were applied to cells at 200 nM, with parallel DMSO treatment (0.002%) as control. JQ1 and PLX51107 were added to cell culture at day 0 without additional treatments up to day 5. CPI-0610 was reapplied to the cells on a daily basis.
(§2) cDNA libraries for mRNAs were made from 1 μg input RNA using High-Capacity cDNA Reverse Transcription Kit (ThermoFisher, 4368814). Gene expressions were quantified using Power SYBR Green PCR Master Mix (Thermofisher, 4367659). For microRNAs, cDNA libraries were made with Taqman Advanced miRNA cDNA Synthesis Kit (Thermofisher, A28007). miR-15A and miR-16-1 were quantified using the Taqman Advanced miRNA Assays (ThermoFisher, A25576) specific to hsa-miR-15a-5p (assay ID: 477858_mir) and hsa-miR-16-5p (assay ID: 477860_mir).

TF-1 cells [3] = experiment: RT-qPCR quantification of gene expression in TF-1 cells; format: cell-based, human; conditions: for HBB, HBG1/2 and HBE1 expression compared with JQ1: CPI-0610 reapplied daily, PLX51107 once at day 0
Method: as §1, §2

GATA1 in K562 cells = experiment: Immunoprecipitation and quantification of total and acetyl-GATA1; format: cell-based; conditions: K562 nuclear lysate
Method: Nuclear protein was extracted according to previously described protocol (45). 10% of the nuclear protein extraction was saved as input. The remaining nuclear extract was diluted with non-denaturing IP buffer (20 mM Tris-HCl pH 8, 137 mM NaCl, 10% glycerol, 1% Triton X-100, 2 mM EDTA) and pre-cleared with normal rat IgG (Santa Cruz, sc2026) and Dynabeads Protein G (ThermoFisher, 10004D). Pre-cleared solutions were split into two equal portions, and 5 μg of anti-GATA1 antibody (Santa Cruz, sc266) or normal rat IgG were added to either portion and incubated overnight at 4° C. overnight. Antibodies were then pulled-down using Dynabeads Protein G, and washed 1× with the IP buffer and 2× with PBS containing 1% Triton X-100. The beads were boiled in 2× protein loading buffer to dissociate the proteins. Input and IP-ed proteins were ran on SDS-PAGE gels and transferred to PVDF membranes. The input samples were blotted using anti-topoisomerase 1 (Abcam, ab109374) and anti-GATA1 antibodies, and the IP-ed samples were blotted with anti-acetyl-lysine antibody (Abcam, ab21623). Quantification of signal intensity was done by ImageJ, and GATA1 and acetyl-GATA1 signals were normalized to the topoisomerase 1 signals in each sample.

HEL cells [4] = experiment: Cell growth and viability of HEL cells with BET inhibitor; format: cell-based; conditions: 200 nM vs DMSO control, days 0-3
Method: as §1

K562 cells [5] = experiment: RNA-seq gene expression in K562 cells; format: cell-based, human
Method: as §1
(§3) Sample RNA libraries were prepared using the KAPA mRNA HyperPrep Kit (Roche, KK8580) with 1 μg input RNA and submitted for sequencing. Raw reads in fastq format were aligned to the hg19 reference genome using HISAT2(38) with Gencode gene and transcript annotation (GRCh37.p13)(39). Gene expression was quantified and compared by tools in the Cuffliks package (40). GO analysis and term clustering was performed using g:Profiler and Cytoscape following the protocols published by Reimand et al (41).

[6] = tested on: β-globin locus in TF-1 cells; experiment: 3C-qPCR interaction frequency at the β-globin locus in TF-1 cells; format: cell-based, human
Method: as §1, with “JQ1 and PLX51107 were added to cell culture at day 0 without additional treatments up to day 5. CPI-0610 was reapplied to the cells on a daily basis.” left out
Methods for chromatin conformation capture (3C) qPCR was adapted from Hagège et al. (42). […] The digestion efficiency, sample purity, and DNA concentration of each sample were assessed by qPCR to exclude low-quality samples prior to the 3C quantification. Calculated quantity of each primer pairs was normalized as number of templates per million B13 control site template. Additionally, because the Gg primer anneals to both HBG1 and HBG2 fragments, while the Ag primer anneals to only HBG2 fragment, the Gg primer signal was subtracted by Ag primer signal to quantify the HBG1 interaction frequency. […]

[7] = tested on: β-globin locus in K562 cells; experiment: 3C-qPCR interaction frequency at the β-globin locus in K562 cells; format: cell-based, human
Method: as §1
Methods for chromatin conformation capture (3C) qPCR was adapted from Hagège et al. (42). Briefly, 10 million cells were collected and fixed with 1% formaldehyde for 5 minutes in PBS with 10% FBS for 5 minutes, then quenched by 124 mM glycine on ice. The fixed cells were then lysed and digested by 400 units of EcoRI (NEB, R3101). Small aliquots of the samples were taken before and after the digestion as digestion controls. Following the digestion, the samples were diluted and ligated by T4 DNA ligase (NEB, M0202). The samples were then reverse-crosslinked, and DNA was purified by phenol-chloroform extraction. The digestion efficiency, sample purity, and DNA concentration of each sample were assessed by qPCR to exclude low-quality samples prior to the 3C quantification. Calculated quantity of each primer pairs was normalized as number of templates per million B13 control site template. Additionally, because the Gg primer anneals to both HBG1 and HBG2 fragments, while the Ag primer anneals to only HBG2 fragment, the Gg primer signal was subtracted by Ag primer signal to quantify the HBG1 interaction frequency. […]

K562 cells [8] = experiment: Sanger sequencing of HBG1/2 cDNA, HBG1 vs HBG2 ratio, K562 cells; format: cell-based, human; conditions: DMSO vs JQ1 treatment, sequencing peak heights
HL-60 cells = experiment: RT-qPCR quantification of hemoglobin gene expression in HL-60 cells; format: cell-based, human; conditions: 200 nM
Method: as §1, with “CPI-0610 was reapplied to the cells on a daily basis.” left out
as §2

K562 cells [9] = experiment: Cell growth and viability of K562 cells with BET inhibitor; format: cell-based; conditions: 200 nM vs DMSO control
Method: as §1

TF-1 cells [10] = experiment: RNA-seq gene expression in TF-1 cells; format: cell-based, human
Method: as §1, §3

HEL cells [11] = experiment: Sanger sequencing of HBG1/2 cDNA, HBG1 vs HBG2 ratio, HEL cells; format: cell-based, human; conditions: DMSO vs JQ1 treatment, sequencing peak heights
K562 cells [12] = experiment: Benzidine-hematoxylin staining for hemoglobin producing cells; format: cell-based; conditions: 200 nM
Method: as §1
K562 cells were counted, and 200,000 cells were collected by spinning at 400 g. […]
At least three randomly selected fields of stained cells were imaged at 40× magnification. […] The numbers of benzidine-positive cells and the intensity of benzidine staining were quantified in the benzidine channel, whereas the total cell number and abnormal nuclear morphology were quantified in the hematoxylin channel. Results of all fields from each slide were summed for the final quantification.

HEL cells [13] = experiment: RT-qPCR quantification of hemoglobin gene expression in HEL cells; format: cell-based, human; conditions: 200 nM
Method: as §1, §2

[14] = TF-1 cells under proliferative condition, 200 nM
[15] = TF-1 cells, both proliferation and erythropoietic conditions

Lifespan in culture medium [1]: short lifespan
Compound: Cc1noc2c1-c1ccccc1C(c1ccc(Cl)cc1)=N[C@H]2CC(N)=O [CPI-0610]
Bromodomain preference (BD1 vs BD2) (BET proteins): preference for the second bromodomain (BD2) | Affinity among BET family members (BET proteins): comparable affinity | HBB, HBG1/2 and HBE1 expression compared with JQ1 (K562 cells [2]; 200 nM): mimic the effects of JQ1 | HBB, HBG1/2 and HBE1 expression compared with JQ1 (TF-1 cells [3]; TF-1 cells, 200 nM): mimic the effects of JQ1

Compound: Cc1sc2c(c1C)C(c1ccc(Cl)cc1)=N[C@@H](CC(=O)OC(C)(C)C)c1nnc(C)n1-2 [JQ1]
GATA1 acetylation (GATA1 in K562 cells; IP, anti-acetyl-lysine): remained unchanged; also recorded: does not affect | Total GATA1 level (GATA1 in K562 cells; normalized to TOP1): did not affect | Cell growth (HEL cells [4]): grow slower; also recorded: significantly suppress cell growth by Day 3 | Cell viability (HEL cells [4]): unaffected; also recorded: did not affect cell viability | Affinity among BET family members (BET proteins): higher affinity for BRD3 and BRD4 | Expression of heme biosynthesis pathway genes, notably ALAS2 (K562 cells [5]; RNA-seq): upregulated | Expression of α- and β-globin hemoglobin genes (K562 cells [5]; RNA-seq): increased the expression of all α- and β-globin hemoglobin genes except HBB and HBD | GATA1 expression (K562 cells [5]; RNA-seq): did not change | HEMGN expression (K562 cells [5]; RNA-seq): significantly suppresses | NR2F2 expression (K562 cells [5]; RNA-seq): did not change | Differentiation (GO analysis of up- and down-regulated genes) (K562 cells [5]; day 3 and day 5): specifically promotes erythroid, but not myeloid differentiation | Transcriptome (gene expression) change (K562 cells [5]; day 3 and day 5, JQ1 vs DMSO): substantially changed the transcriptome | Interaction with LCR across the entire locus, except at the HBE1 promoter region ([6]; both proliferative and erythropoietic conditions, 72 hours): modest decrease | Interaction between 5′BG and upstream fragments ([6]; more prominent in the erythropoietic condition): slight decrease | Interaction frequency of 5′BG (5′BGLT3 fragment) with the HBG1/2 region and the LCR [7]: significantly increase | Increase in interaction frequency between the LCR and the HBG promoter region ([7]; 72 hours of JQ1 treatment): over 2 fold | Interaction frequency between the LCR and the rest of the β-globin locus ([7]; 72 hours of JQ1 treatment): slight increases | Ratio of HBG1 vs. HBG2 (K562 cells [8]): no significant changes | HBB, HBG1/2 and HBE1 expression (HL-60 cells): had no effect | Cell growth (K562 cells [9]): grow slower; also recorded: not significantly affected; also recorded: slightly suppresses cell growth, but this effect was not statistically significant; also recorded: slightly suppress cell growth, but this effect was not statistically significant | Cell viability (K562 cells [9]): unaffected; also recorded: not significantly affected; also recorded: did not affect cell viability | GATA1 expression (TF-1 cells [10]; TF-1 cells): did not change | HBA1/2 expression (α-globin locus) (TF-1 cells [10]; TF-1 cells): upregulated | HBE1 expression (β-globin locus) (TF-1 cells [10]; TF-1 cells): specifically induced | HEMGN expression (TF-1 cells [10]; TF-1 cells): significantly suppresses | KLF1 expression (TF-1 cells [10]; TF-1 cells, erythropoietic condition): slightly decreased | ALAS2 expression (TF-1 cells [10]; TF-1 cells, especially under erythropoietic conditions): upregulated | KLF1 expression (TF-1 cells [10]; TF-1 cells, proliferative condition): significantly suppressed | NR2F2 expression (TF-1 cells [10]; proliferative TF-1 cells): significantly suppressed | Ratio of HBG1 vs. HBG2 (HEL cells [11]): no significant changes | Percentage of hemoglobin producing cells (benzidine-hematoxylin staining) (K562 cells [12]; day 3): ~6% | Percentage of hemoglobin producing cells (benzidine-hematoxylin staining) (K562 cells [12]; day 5): over 10% | miR-15A expression (K562 cells [2]): significantly upregulated | miR-16-1 expression (K562 cells [2]): significantly upregulated | HBB expression (K562 cells [2]; 200 nM, 5-day time course): unaffected | HBE1 expression (K562 cells [2]; 200 nM, 5-day time course): upregulated | HBG1/2 expression (K562 cells [2]; 200 nM, 5-day time course): upregulated | MYC expression (K562 cells [2]; 200 nM, up to 4 days after the initial treatment): consistently suppressed | BGLT3 expression increase (K562 cells [2]; RT-qPCR): 6 fold | HEMGN expression (K562 cells [2]; RT-qPCR): significantly suppressed | MYB expression (K562 cells [2]; RT-qPCR): significantly suppressed | HBB expression (HEL cells [13]): suppressing | HBE1 expression (HEL cells [13]): significantly upregulated | HBG1/2 expression (HEL cells [13]): significantly upregulated | miR-15A expression (TF-1 cells [3]; TF-1 cells): significantly upregulated | miR-16-1 expression (TF-1 cells [3]; TF-1 cells): significantly upregulated | HBB expression (TF-1 cells [3]; TF-1 cells treated with both EPO and JQ1): significantly decreased | HBE1 expression increase (TF-1 cells [3]; TF-1 cells treated with both EPO and JQ1, day 5): over 200 fold | HBB expression (TF-1 cells [3]; [14]): not observed | HBE1 expression (TF-1 cells [3]; TF-1 cells, 200 nM, without EPO): only upregulated | BCL11A expression (TF-1 cells [3]; TF-1 cells, RT-qPCR): significantly suppressed | MYB expression (TF-1 cells [3]; TF-1 cells, RT-qPCR): significantly suppressed | HEMGN expression (TF-1 cells [3]; TF-1 cells, RT-qPCR, especially under erythropoietic condition): significantly suppressed | Proportion of HBB transcripts relative to total β-globin transcripts (TF-1 cells [3]; [15]): significantly decreased | Proportion of HBE1 transcripts relative to total β-globin transcripts (TF-1 cells [3]; [15]): increased

Compound: Cc1noc(C)c1-c1cnc2c(-c3ccc(C(=O)O)cc3)cn([C@@H](C)c3ccccn3)c2c1 [PLX51107]
Bromodomain preference (BD1 vs BD2) (BET proteins): preferentially binds to BD1 | Affinity among BET family members (BET proteins): somewhat lower affinity for BRDT | HBB, HBG1/2 and HBE1 expression compared with JQ1 (K562 cells [2]; 200 nM): mimic the effects of JQ1 | HBB expression (TF-1 cells [3]; [14]): significantly suppressed | HBB, HBG1/2 and HBE1 expression compared with JQ1 (TF-1 cells [3]; TF-1 cells, 200 nM): mimic the effects of JQ1
